Source: article PMC12785453, “Oral Fluid Concentrations and Pharmacological Effects of Clephedrone and Methylone in Humans” (International Journal of Molecular Sciences, 2025)

Test: Oral fluid concentrations of methylone (LC-MS/MS)
Assay type: in vivo, humans
Settings: 150 or 200 mg oral
Experimental: Methylone pharmacology was evaluated in a study designed as a randomized, double-blind, placebo-controlled, crossover clinical trial. Four pilot studies were conducted administering methylone at oral doses of 50 (n = 3), 100 (n = 6), 150 (n = 5), and 200 mg (n = 7). Participants attended 3 experimental sessions separated by a one-week wash-out period and received two doses of methylone (one dose per experimental session) compared to placebo, except in the last pilot study in which participants received one dose of methylone, compared to MDMA and placebo. However, in this manuscript, only the results corresponding to the highest methylone doses (n = 12; 150 and 200 mg; mean dose = 179.2 mg) are presented, to enable comparison with clephedrone self-administration. Participants were recruited by word of mouth in the volunteer database of the clinical pharmacology unit.
In both studies, oral fluid samples for the quantification of clephedrone and methylone concentration were collected using Salivette standard tubes. For clephedrone, oral fluid samples were collected at baseline, 0.50, 1, 1.5, 2, 3, 4, and 5 h, whereas for methylone, they were collected at baseline, 0.25, 0.50, 0.75, 1, 1.5, 2, 3, 4, 6, 8, and 10 h. After collection, all samples were centrifuged and stored frozen at −20 °C until analysis. Clephedrone oral fluid concentrations were determined using a previously validated gas chromatography coupled to mass spectrometry systems (GC-MS/MS). Methylone was quantified via liquid chromatography–tandem mass spectrometry (LC–MS/MS).
For oral fluid concentrations of clephedrone and methylone, only a descriptive analysis was performed to obtain the main pharmacokinetics data, including the maximum concentration (Cmax), the time required to reach maximum concentrations (Tmax), and AUC up to 5 h (AUC0–5h) for clephedrone and up to 6 h (AUC0–6h) for methylone. These parameters were calculated using the Pharmacokinetic Functions for Microsoft Excel (Joel Usansky, Atul Desai, and Diane Tang-Liu, Department of Pharmacokinetics and Drug Metabolism, Allergan, Irvine, CA, USA). […]

SMILES: CNC(C)C(=O)c1ccc2c(c1)OCO2 (stereo not drawn) [Methylone, 3,4-methylenedioxy-N-methylcathinone]
- Oral fluid concentration at 6 h, times lower than Cmax (6 h): 11 times
- Cmax (human, oral fluid, n=12): 17200 ng/mL
- AUC(0-t) (human, oral fluid, n=12, read-out: Oral fluid AUC0–6 h): 44700 ng·h/mL
